Data reported in ChEMBL document CHEMBL1134628, “Are free energy calculations useful in practice? A comparison with rapid scoring functions for the p38 MAP kinase protein system” (J Med Chem, 2001).

Each compound was assayed against MAP kinase p38 (Homo sapiens, UniProt O15264+Q15759+Q16539+P53778) (assay: Binding affinity against p38 MAP kinase system).
Assay type: protein assay

Compound | pIC50
Cc1cccc(Sc2ccc3c(-c4c(Cl)cccc4Cl)c(=O)ncn3n2)c1 | 5.854
Cc1ccc(Sc2ccc3c(-c4c(Cl)cccc4Cl)c(=O)ncn3n2)c(C)c1 | 6.577
O=c1ncn2nc(Sc3ccccc3O)ccc2c1-c1c(Cl)cccc1Cl | 6.444
O=c1ncn2nc(Sc3ccc(F)cc3)ccc2c1-c1c(Cl)cccc1Cl | 7
O=c1ncn2nc(Sc3ccc(F)c(Cl)c3)ccc2c1-c1c(Cl)cccc1Cl | 6.301
Nc1cc(F)ccc1Sc1ccc2c(-c3c(Cl)cccc3Cl)c(=O)ncn2n1 | 6.658
O=c1ncn2nc(Sc3cccc(Cl)c3)ccc2c1-c1c(Cl)cccc1Cl | 6.553
O=c1ncn2nc(Sc3ccc(Cl)c(Cl)c3)ccc2c1-c1c(Cl)cccc1Cl | 6.097
O=c1ncn2nc(Sc3cccc(F)c3)ccc2c1-c1c(Cl)cccc1Cl | 6.347
O=c1ncn2nc(Sc3ccccc3)ccc2c1-c1c(Cl)cccc1Cl | 6.602
O=c1ncn2nc(Sc3ccc(F)cc3Cl)ccc2c1-c1c(Cl)cccc1Cl | 7.444
Cc1ccc(Sc2ccc3c(-c4c(Cl)cccc4Cl)c(=O)ncn3n2)cc1 | 5.854
O=c1ncn2nc(Sc3ccccc3Br)ccc2c1-c1c(Cl)cccc1Cl | 6.602
Cc1ccc(Sc2ccc3c(-c4c(Cl)cccc4Cl)c(=O)ncn3n2)cc1C | 5.721
Cc1ccccc1Sc1ccc2c(-c3c(Cl)cccc3Cl)c(=O)ncn2n1 | 6.699
Cc1cc(Cl)ccc1Sc1ccc2c(-c3c(Cl)cccc3Cl)c(=O)ncn2n1 | 6.745
